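Five concentrations, 48 hours, 96-well plates. At the TGI there is no net growth.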
Key:
Assay in all cases: NCI anticancer screen, dose series, 48 h
[1] = test system: 786-0 renal
[2] = test system: A498 renal
[3] = test system: A549 NSCLC
[4] = test system: ACHN renal
[5] = test system: BT-549 breast
[6] = test system: CAKI-1 renal
[7] = test system: CCRF-CEM leukemia
[8] = test system: COLO 205 colon
[9] = test system: DU-145 prostate
[10] = test system: HCC-2998 colon
[11] = test system: HCT-116 colon
[12] = test system: HCT-15 colon
[13] = test system: HOP-62 NSCLC
[14] = test system: HOP-92 NSCLC
[15] = test system: HS 578T breast
[16] = test system: HT29 colon
[17] = test system: IGROV1 ovarian
[18] = test system: KM12 colon
[19] = test system: M14 melanoma
[20] = test system: MALME-3M melanoma
[21] = test system: MCF7 breast
[22] = test system: MDA-MB-231 breast
[23] = test system: MDA-MB-435
[24] = test system: MDA-N
[25] = test system: MOLT-4 leukemia
[26] = test system: NCI-H226 lung
[27] = test system: NCI-H23 lung
[28] = test system: NCI-H460 lung
[29] = test system: NCI-H522 lung
[30] = test system: NCI/ADR-RES ovarian
[31] = test system: OVCAR-3 ovarian
[32] = test system: OVCAR-4 ovarian
[33] = test system: OVCAR-5 ovarian
[34] = test system: OVCAR-8 ovarian
[35] = test system: PC-3 prostate
[36] = test system: RXF 393 renal
[37] = test system: SF-268 CNS
[38] = test system: SF-295 CNS
[39] = test system: SF-539 CNS
[40] = test system: SK-MEL-2 melanoma
[41] = test system: SK-MEL-28 melanoma
[42] = test system: SK-OV-3 ovarian
[43] = test system: SN12C renal
[44] = test system: SNB-75 CNS
[45] = test system: SR leukemia
[46] = test system: SW-620 colon
[47] = test system: T-47D breast
[48] = test system: TK-10 renal
[49] = test system: U251 CNS
[50] = test system: UACC-257 melanoma
[51] = test system: UACC-62 melanoma
[52] = test system: UO-31 renal
[53] = test system: EKVX NSCLC
[54] = test system: HL-60(TB) leukemia
[55] = test system: LOX IMVI melanoma
[56] = test system: SK-MEL-5 melanoma
[57] = test system: SNB-19 CNS
[58] = test system: K-562 leukemia
[59] = test system: RPMI-8226 leukemia

O=C(c1ccco1)C1CC(c2ccc3ccccc3c2O)=NN1c1ccc([N+](=O)[O-])cc1[N+](=O)[O-] (stereo unspecified)
TGI [1]: > 100 µM | TGI [2]: > 100 µM | TGI [3]: > 100 µM | TGI [4]: > 100 µM | TGI [5]: > 100 µM | TGI [6]: > 100 µM | TGI [7]: 10.6 µM | TGI [8]: 32 µM | TGI [9]: > 100 µM | TGI [10]: > 100 µM | TGI [11]: > 100 µM | TGI [12]: > 100 µM | TGI [13]: > 100 µM | TGI [14]: 76.1 µM | TGI [15]: 66.6 µM | TGI [16]: 42.3 µM | TGI [17]: > 100 µM | TGI [18]: 26.2 µM | TGI [19]: > 100 µM | TGI [20]: > 100 µM | TGI [21]: > 100 µM | TGI [22]: 68.7 µM | TGI [23]: > 100 µM | TGI [24]: > 100 µM | TGI [25]: 11.4 µM | TGI [26]: > 100 µM | TGI [27]: > 100 µM | TGI [28]: 33.9 µM | TGI [29]: 47.5 µM | TGI [30]: 75.4 µM | TGI [31]: > 100 µM | TGI [32]: > 100 µM | TGI [33]: > 100 µM | TGI [34]: > 100 µM | TGI [35]: > 100 µM | TGI [36]: > 100 µM | TGI [37]: > 100 µM | TGI [38]: > 100 µM | TGI [39]: > 100 µM | TGI [40]: 97.3 µM | TGI [41]: > 100 µM | TGI [42]: 96.9 µM | TGI [43]: > 100 µM | TGI [44]: 89.1 µM | TGI [45]: 23.1 µM | TGI [46]: > 100 µM | TGI [47]: > 100 µM | TGI [48]: > 100 µM | TGI [49]: > 100 µM | TGI [50]: > 100 µM | TGI [51]: > 100 µM | TGI [52]: > 100 µM

O=[N+]([O-])c1ccc(NS(=O)(=O)C(F)(F)F)cc1
TGI [1]: > 100 µM | TGI [2]: > 100 µM | TGI [3]: > 100 µM | TGI [4]: > 100 µM | TGI [5]: > 100 µM | TGI [6]: > 100 µM | TGI [7]: > 100 µM | TGI [8]: > 100 µM | TGI [9]: > 100 µM | TGI [53]: > 100 µM | TGI [11]: > 100 µM | TGI [12]: > 100 µM | TGI [54]: > 100 µM | TGI [13]: > 100 µM | TGI [14]: > 100 µM | TGI [15]: > 100 µM | TGI [16]: > 100 µM | TGI [17]: > 100 µM | TGI [18]: > 100 µM | TGI [55]: > 100 µM | TGI [19]: > 100 µM | TGI [21]: > 100 µM | TGI [22]: > 100 µM | TGI [23]: > 100 µM | TGI [24]: > 100 µM | TGI [25]: > 100 µM | TGI [26]: > 100 µM | TGI [27]: > 100 µM | TGI [28]: > 100 µM | TGI [29]: > 100 µM | TGI [30]: > 100 µM | TGI [31]: > 100 µM | TGI [32]: > 100 µM | TGI [33]: > 100 µM | TGI [34]: > 100 µM | TGI [35]: > 100 µM | TGI [36]: > 100 µM | TGI [37]: > 100 µM | TGI [38]: > 100 µM | TGI [39]: > 100 µM | TGI [40]: > 100 µM | TGI [41]: > 100 µM | TGI [56]: > 100 µM | TGI [42]: > 100 µM | TGI [43]: > 100 µM | TGI [57]: > 100 µM | TGI [44]: > 100 µM | TGI [46]: > 100 µM | TGI [47]: > 100 µM | TGI [48]: > 100 µM | TGI [49]: > 100 µM | TGI [50]: > 100 µM | TGI [51]: > 100 µM | TGI [52]: > 100 µM

COc1ccc(/C=C/C(=O)C(C)(C)Br)cc1
TGI [1]: 23.7 µM | TGI [2]: 37.1 µM | TGI [3]: 63.9 µM | TGI [4]: 25.7 µM | TGI [5]: 7.06 µM | TGI [6]: 35.7 µM | TGI [7]: 5.22 µM | TGI [8]: 29.5 µM | TGI [9]: 37.2 µM | TGI [53]: 31.7 µM | TGI [11]: 9.83 µM | TGI [12]: 7.69 µM | TGI [54]: 69.2 µM | TGI [13]: 25.3 µM | TGI [14]: 27.9 µM | TGI [15]: 37.8 µM | TGI [17]: 5.76 µM | TGI [58]: > 100 µM | TGI [18]: 55.1 µM | TGI [55]: 23.3 µM | TGI [19]: 3.79 µM | TGI [20]: 32 µM | TGI [21]: 19.1 µM | TGI [22]: 63.1 µM | TGI [23]: 34.3 µM | TGI [24]: 39.4 µM | TGI [25]: 18.9 µM | TGI [27]: 6.04 µM | TGI [28]: 48 µM | TGI [29]: 2.92 µM | TGI [30]: > 100 µM | TGI [31]: 35 µM | TGI [33]: 28.1 µM | TGI [34]: 11.5 µM | TGI [35]: 36.9 µM | TGI [59]: 14.6 µM | TGI [36]: 6.09 µM | TGI [37]: 34.7 µM | TGI [38]: 43.9 µM | TGI [39]: 32.2 µM | TGI [40]: 27.5 µM | TGI [56]: 31.4 µM | TGI [42]: 63.1 µM | TGI [43]: 19.6 µM | TGI [57]: 88.7 µM | TGI [45]: 13.6 µM | TGI [46]: 5.37 µM | TGI [47]: 76.2 µM | TGI [48]: 29.7 µM | TGI [49]: 28.6 µM | TGI [50]: 30.2 µM | TGI [51]: 27.1 µM | TGI [52]: 16.6 µM

COc1ccc(C=Nc2ccc(-c3nc4ccccc4[nH]3)cc2)cc1OC
TGI [1]: > 100 µM | TGI [2]: > 100 µM | TGI [3]: > 100 µM | TGI [4]: > 100 µM | TGI [5]: > 100 µM | TGI [6]: > 100 µM | TGI [7]: > 100 µM | TGI [8]: > 100 µM | TGI [9]: > 100 µM | TGI [53]: > 100 µM | TGI [11]: > 100 µM | TGI [12]: > 100 µM | TGI [54]: > 100 µM | TGI [13]: > 100 µM | TGI [14]: > 100 µM | TGI [15]: > 100 µM | TGI [16]: > 100 µM | TGI [17]: > 100 µM | TGI [58]: > 100 µM | TGI [18]: > 100 µM | TGI [55]: > 100 µM | TGI [19]: > 100 µM | TGI [20]: > 100 µM | TGI [21]: > 100 µM | TGI [22]: > 100 µM | TGI [23]: > 100 µM | TGI [24]: > 100 µM | TGI [25]: > 100 µM | TGI [26]: > 100 µM | TGI [27]: > 100 µM | TGI [28]: > 100 µM | TGI [29]: > 100 µM | TGI [30]: > 100 µM | TGI [31]: > 100 µM | TGI [32]: > 100 µM | TGI [33]: > 100 µM | TGI [34]: > 100 µM | TGI [35]: > 100 µM | TGI [59]: > 100 µM | TGI [36]: > 100 µM | TGI [37]: > 100 µM | TGI [38]: > 100 µM | TGI [39]: > 100 µM | TGI [40]: > 100 µM | TGI [41]: > 100 µM | TGI [56]: > 100 µM | TGI [42]: > 100 µM | TGI [43]: > 100 µM | TGI [57]: > 100 µM | TGI [44]: 52.3 µM | TGI [45]: > 100 µM | TGI [46]: > 100 µM | TGI [47]: > 100 µM | TGI [48]: > 100 µM | TGI [49]: > 100 µM | TGI [50]: > 100 µM | TGI [52]: > 100 µM
